Reference: publication PMC8329197, “Compounds targeting OSBPL7 increase ABCA1-dependent cholesterol efflux preserving kidney function in two models of kidney disease” (Nature Communications, 2021)
“And” between values parts separate entries of the source, which are not always exact repeats. Identical values can stand only once.

Assays:
human THP1 macrophages = experiment: apoAI-mediated (ABCA1) cholesterol efflux from cholesterol-loaded THP1 macrophages; assay type: cell-based; parameters: ABCA1 Efflux %: dose or concentration left out as unconfirmed
[1] = test system: Adriamycin (ADR)-induced nephropathy in Balb/c mice; experiment: ADR nephropathy: kidney cortex lipids (cholesterol ester, total cholesterol, triglycerides, Oil-red O); assay type: in vivo, mouse; details: ADR model; individual animals
Protocol: OCT embedded kidney cortex samples were cryosectioned at 4 μm thickness and stained with Oil-Red O-isopropanol solution (Electron Microscopy Science, PA) diluted 6:4 in water, and then counterstained with Hematoxylin Harris Hg Free (VWR, PA). Sections were then evaluated using a light microscope (Olympus BX 41, Tokyo, Japan).
Snap frozen kidney cortex samples were homogenized in 2 mM potassium phosphate buffer, pH 7, (10 µl buffer/mg tissue) using a glass douncer on ice. 100 μl of the homogenate were mixed thoroughly with 1 ml of hexane:isopropanol (3:2;v:v) per volume of tissue homogenate. The aqueous (pellet) and organic (supernatant) phases were separated by centrifugation at 12,000 × g for 5 min. Pellets (aqueous phase) were dried, reconstituted in 8 M urea, 0.1% SDS, 0.1 M NaOH, and total proteins were quantified by the BCA method (Thermofisher). The organic phase was dried by exposure to nitrogen. Lipids were then reconstituted in 100 µl isopropanol:NP-40 (9:1;v:v). Triglyceride content was assayed using a colorimetric kit according to the manufacturer’s instructions (Cayman Chemical USA). Total cholesterol and CE content were assayed using an enzymatic fluorometric method. For total cholesterol measurement, extracts were diluted 1:100 in assay buffer (100 mM potassium phosphate, 50 mM NaCl, 5 mM cholic acid, 0.1% Triton […], pH 7.4) containing cholesterol oxidase (1 U/ml), cholesterol esterase (1 U/ml), horseradish peroxidase (1 U/ml), and Amplex Red (75 µM). The reactions were incubated at 37 °C for 30 min in a black opaque 96-well plate (Greiner) and fluorescence was measured in a microplate reader (Spectramax i3X, Molecular Devices) at 530 nm excitation and 580 emission.
For CE determination, 150 µl of the assay buffer described above, supplemented with bovine liver catalase (45 U/ml) and cholesterol oxidase (1 U/ml), was added to 25 μl of sample and incubated overnight at 37 °C to deplete free cholesterol leaving only cholesterol esters. Then, 75 µl of cholesterol ester detection reagent (1 U/ml cholesterol oxidase, 4 U/ml cholesterol esterase, 24 U/ml horseradish peroxidase, 300 µM Amplex Red) was added. The reaction was incubated at 37 °C for 30 min and the fluorescence signal was measured as described above. Internal standards included samples containing 1 mM of cholesterol and 5 μM of cholesterol oleate in order to verify the completeness of the enzymatic decomposition of free cholesterol as well as assay sensitivity and specificity.

[2] = test system: Adriamycin (ADR)-induced nephropathy in Balb/c mice; experiment: ADR nephropathy: serum cholesterol and triglycerides; assay type: in vivo, mouse
[3] = test system: Adriamycin (ADR)-induced nephropathy in Balb/c mice; experiment: ADR nephropathy: WBC, hemoglobin, hematocrit, ALT, AST; assay type: in vivo, mouse; details: ADR-induced nephropathy
[4] = ADR-injected mice, 28-day treatment, 25th quartile
[5] = ADR-injected mice, 28-day treatment, 75th quartile
[6] = ADR-injected mice, 28-day treatment, group maximum
[7] = ADR-injected mice, 28-day treatment, group median
[8] = ADR-injected mice, 28-day treatment, group minimum
[9] = ADR-injected mice, 28-day treatment, individual mouse values
[10] = 28 days treatment, 25th quartile
[11] = 28 days treatment, 75th quartile
[12] = 28 days treatment, group maximum

For `O=C(N[C@@H]1CCCC[C@H]1O)c1ccc(OCC(F)(F)F)c(-c2ccc(Cl)c(Cl)c2)n1` [Cpd A], the “ABCA1 percentage of induction, average” value (human THP1 macrophages; average of 3) was 91%, the “ABCA1 Efflux %” value (human THP1 macrophages; average(SEM)) was 91(4.9) % and the “ABCA1 percentage of induction” value (human THP1 macrophages; single experiments (3 per compound)) was 81% and 94% and 97%. The “KIDNEY CORTEX TOTAL CHOLESTEROL” value [1] was 116.65 nmol Chol./mg protein and 64.31 nmol Chol./mg protein and 91.93 nmol Chol./mg protein and 226.3 nmol Chol./mg protein and 280.19 nmol Chol./mg protein and 194.83 nmol Chol./mg protein and 293.03 nmol Chol./mg protein and 87.04 nmol Chol./mg protein and 85.55 nmol Chol./mg protein and 75 nmol Chol./mg protein and 105.96 nmol Chol./mg protein, the “KIDNEY CORTEX TRIGLYCERIDES” value [1] was 65.49 nmol Triglyceride /mg protein and 206.46 nmol Triglyceride /mg protein and 31.6 nmol Triglyceride /mg protein and 59.01 nmol Triglyceride /mg protein and 14.83 nmol Triglyceride /mg protein and 65.84 nmol Triglyceride /mg protein and 43.06 nmol Triglyceride /mg protein and 145.74 nmol Triglyceride /mg protein and 110.74 nmol Triglyceride /mg protein and the “SERUM CHOLESTEROL” value ([2]; ADR model, individual animals) was 96 and 91 and 87 and 95 and 159 and 122 and 71 and 90 and 81 and 77. For the same compound, the “SERUM TRIGLYCERIDES” value ([2]; ADR model, individual animals) was 108 and 116 and 127 and 60 and 44 and 80 and 53 and 54, the “Serum cholesterol, QR(25)” value [2, 4] was 87 mg/dL and the “Serum triglycerides, QR(25)” value [2, 4] was 55.5 mg/dL. For the same compound, the “Serum cholesterol, QR(75)” value [2, 5] was 96 mg/dL, the “Serum triglycerides, QR(75)” value [2, 5] was 116 mg/dL and the “Serum cholesterol, Max” value [2, 6] was 159 mg/dL. The “Serum triglycerides, Max” value [2, 6] was 127 mg/dL, the “Serum cholesterol, Median” value [2, 7] was 91 mg/dL and the “Serum triglycerides, median” value [2, 7] was 94 mg/dL. For the same compound, the “Serum cholesterol, Min” value [2, 8] was 71 mg/dL, the “Serum triglycerides, Min” value [2, 8] was 44 mg/dL and the SERUM CHOLESTEROL [2, 9] was 91 mg/dL and 87 mg/dL and 95 mg/dL and 159 mg/dL and 122 mg/dL and 71 mg/dL and 90 mg/dL and 77 mg/dL and 96 mg/dL. The SERUM TRIGLYCERIDES [2, 9] was 44 mg/dL and 80 mg/dL and 53 mg/dL and 54 mg/dL and 108 mg/dL and 116 mg/dL and 127 mg/dL and 60 mg/dL, the “Animals with sporadically high cholesterol levels (>122 mg/dL)” value ([2]; plasma, 28 days of treatment, ADR-challenged) was 10% and the “Cholesterol (mg/dL), Median(IQR)” value ([2]; serum, after ADR challenge) was 91(80-159) mg/dL. For the same compound, the “Cholesterol (mg/dL), Range” value ([2]; serum, after ADR challenge) was 71 to 159 mg/dL, the “Cholesterol, % of the group> 112 mg/dL” value ([2]; serum, after ADR challenge) was 10% and the “Triglycerides (mg/dL), Median(IQR)” value ([2]; serum, after ADR challenge) was 94(54-116) mg/dL. For the same compound, the “Triglycerides (mg/dL), Range” value ([2]; serum, after ADR challenge) was 44 to 127 mg/dL, the “ALT, Median (IQR)” value [3] was 256 (90.3-625) U/L and the “ALT, Range” value [3] was 88-766 U/L. For the same compound, the “AST, Median (IQR)” value [3] was 326 (213-500) U/L, the “AST, Range” value [3] was 200-685 U/L and the “HTC, Median (IQR)” value [3] was 54 (50-56) %. The “HTC, Range” value [3] was 47-62%, the Hgb, Median (IQR) [3] was 13.6 g/dL and the Hgb, Range [3] was 12.1 to 15.5 g/dL. For the same compound, the “WBC, Range” value [3] was 3.7-7.0 x103cells/µL, the “ALT, QR(25)” value [3, 10] was 130.75 U/L and the “AST, QR(25)” value [3, 10] was 232.75 U/L. For the same compound, the “HTC, QR(25)” value [3, 10] was 51.25%, the Hgb, QR(25) [3, 10] was 13.1 g/dL and the “WBC, QR(25)” value [3, 10] was 3.925 x 10^3 cells/ul. The “ALT, QR(75)” value [3, 11] was 499.25 U/L, the “AST, QR(75)” value [3, 11] was 421.5 U/L and the “HTC, QR(75)” value [3, 11] was 55.5%. For the same compound, the Hgb, QR(75) [3, 11] was 13.9 g/dL, the “WBC, QR(75)” value [3, 11] was 7.375 x 10^3 cells/ul and the “ALT, Max” value [3, 12] was 766 U/L. For the same compound, the “AST, Max” value [3, 12] was 685 U/L and the “HTC, Max” value [3, 12] was 62%.
